In US11279703B2, “Fused pyrimidine compounds as BRD4 and JAK2 dual inhibitors and methods for use thereof” (APTOSE BIOSCIENCES INC., priority 2016, dated 2022):

Key:
BRD4-BD1 = BRD4-BD1 (Homo sapiens (Human), UniProt O60885); assay: AlphaLisa bromodomain binding assay, BRD4-BD1; details: Table 6; read-out: BRD4(1) IC50
From the text: An AlphaLisa assay was used to observe bromodomain binding and measure IC50s for the compounds disclosed herein. An AlphaLisa assay is a bead-based assay used to detect interactions between bromodomains and polyacetylated histone peptides. Donor and acceptor beads bound to target and ligand are brought into proximity by this protein-protein interaction.
Equipment Required • 1. […] Plate centrifuge • 3. Plate shaker • 4. […] Single channel and multi-channel pipettes • 6. Microplate reader (Pherastar)
(§1) Stock and Final Assay Concentrations (FAC) • 1. All reference and test compounds are made at a concentration of 10 mM in DMSO. Compounds are serially diluted in DMSO and a FAC starting from 10 μM to 10 point 3 fold serial dilutions is arrived. FAC of DMSO is 1%. • 2. Enzyme stock and FAC
Biotinylated substrate (Acetylated histone H4, biotinylated substrate—cat no. AS64989-025, Anaspec) stock and FAC
• 4. Acceptor and donor beads stock and FAC
Buffers • For the enzyme and substrate dilution following buffer is used (for 50 ml) • HEPES: 50 mM 2.5 ml • NaCl: 25 mM 1.25 ml • DTT: 10 mM 0.05 ml • BSA: 0.1% 0.05 g • MilliQ water: 45.7 ml • For dilution of acceptor and donor beads AlphaLISA 5× epigenetics Buffer Perkin Elmer (Cat: AL008C) is used at 1× concentration.
Procedure • 1. […] Tap the plate gently • 3. […] Cover with plate sealer • 5. […] Incubate the plate at room temperature for 10 minutes • 7. Add 10 μl of the substrate • 8. Cover with plate sealer • 9. […] Cover with plate sealer • 14. […] Cover with plate sealer • 18.
(§2) The percent inhibition is calculated in the excel analysis template and the IC50 values are subsequently determined using a sigmoidal dose-response curve (variable slope) using GraphPad Prism® 5 software.

JAK2 = JAK2 (Homo sapiens (Human), UniProt O60674); assay: HTRF kinase assay, JAK2; type: biochemical; details: Table 6
Chain of JAK2 (O60674 whole entry): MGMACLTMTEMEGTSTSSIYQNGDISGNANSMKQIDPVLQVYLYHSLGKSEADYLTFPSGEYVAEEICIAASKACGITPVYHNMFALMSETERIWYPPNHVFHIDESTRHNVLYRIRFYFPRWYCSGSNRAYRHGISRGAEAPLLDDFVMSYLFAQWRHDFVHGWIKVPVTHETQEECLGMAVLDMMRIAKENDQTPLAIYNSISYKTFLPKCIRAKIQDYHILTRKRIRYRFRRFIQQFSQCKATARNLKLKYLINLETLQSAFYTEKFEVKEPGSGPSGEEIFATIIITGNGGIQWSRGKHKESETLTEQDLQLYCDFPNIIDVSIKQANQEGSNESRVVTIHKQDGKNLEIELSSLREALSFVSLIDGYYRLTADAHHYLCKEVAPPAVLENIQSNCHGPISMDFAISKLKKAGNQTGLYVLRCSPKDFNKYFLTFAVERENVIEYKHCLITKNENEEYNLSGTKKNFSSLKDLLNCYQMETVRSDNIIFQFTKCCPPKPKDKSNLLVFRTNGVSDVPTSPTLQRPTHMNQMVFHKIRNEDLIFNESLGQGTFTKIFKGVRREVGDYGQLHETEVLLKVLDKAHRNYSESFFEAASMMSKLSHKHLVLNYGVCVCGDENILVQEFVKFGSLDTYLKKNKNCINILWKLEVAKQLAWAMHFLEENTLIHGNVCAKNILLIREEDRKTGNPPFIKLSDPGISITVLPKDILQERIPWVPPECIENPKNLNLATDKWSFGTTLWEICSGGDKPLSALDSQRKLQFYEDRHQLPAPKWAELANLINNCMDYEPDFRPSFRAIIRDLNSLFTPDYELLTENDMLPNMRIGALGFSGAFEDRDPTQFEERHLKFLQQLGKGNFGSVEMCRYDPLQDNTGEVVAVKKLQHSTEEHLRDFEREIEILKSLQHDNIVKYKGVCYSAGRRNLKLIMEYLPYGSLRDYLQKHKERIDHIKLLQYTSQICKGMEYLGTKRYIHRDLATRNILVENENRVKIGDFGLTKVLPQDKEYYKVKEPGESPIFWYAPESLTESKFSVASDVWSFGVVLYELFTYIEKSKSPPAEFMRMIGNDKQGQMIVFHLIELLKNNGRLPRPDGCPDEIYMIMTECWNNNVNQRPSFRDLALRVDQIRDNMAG
From the text: A kinase assay with HTRF was used to observe JAK activity and calculate the IC50s of compounds disclosed herein. HTRF is an enzymatic assay used to determine the amount of phosphorylated peptide. FRET (Fluorescence Resonance Energy Transfer) is based on the transfer of energy between two fluorophores—a donor and an acceptor—when in close proximity. Molecular interactions between biomolecules can be assessed by coupling each partner with a fluorescent label and by detecting the level of energy transfer. The amount of phopshorylated peptide can be detected using a combination of a Eu 3+Cryptate labeled anti-phospho residue antibody, SA-XL665 and a biotinylated substrate. The signal is proportional to the concentration of phospho-residues.
Equipment Required • 1. […] Plate centrifuge • 3. Plate shaker • 4. […] Single channel and multi-channel pipettes • 6. Microplate reader (Pherastar)]
as §1, with “arrived. For Ruxolitinib the starting FAC is 1 μM.” for “arrived.”
• JAK-1: Invtirogen Cat: PR8767C • JAK-2: Invtirogen Cat: PR7820B • JAK-3: Invtirogen Cat: PR7507B • 3. Substrate (synthetic peptide-Biotinylated-N-terminal tag-[…] from Biopeptide) stock and FAC
• Adenosine 5′-triphosphate disodium salt hydrate: Sigma Cat: A26209 • 5. […] Buffers • Base buffer (for 50 ml)
• HTRF buffer: • 50 mM Tris-HCl, pH—7.5 • 100 mM NaCl • 0.1% BSA • 0.05% Tween20 • 0.5 mM EDTA
To a 384 well black-plate: • 1. Add 17 μL of the buffer to each well of the 384-well black plate • 2. […] Add 5 μl of the enzyme to each well of the plate • 4. Add 10 μl of the substrate and ATP mix to all the wells • 5. Cover with plate sealer • 6. […] Incubate at room temperature for 1 hour on shaker • 8. […] Add 37.5 μL of the HTRF mix to these wells. • 9. Incubate the plate at room temperature on shaker for 45 minutes. • 10.
as §2

| IC50 (BRD4-BD1) | IC50 (JAK2) | Compound |
| --- | --- | --- |
| 393 nM | 18 nM | CN1CCN(c2ccc(Nc3ncc4scc(-c5cccc(NS(=O)(=O)C(C)(C)C)c5)c4n3)cc2F)CC1 |
| 2300 nM | 50 nM | CNCCOc1ccc(Nc2ncc3ccn(-c4cccc(NS(=O)(=O)C(C)(C)C)c4)c3n2)cc1F [drawing 460] |
| 321 nM | 137 nM | CN1CCN2c3ccc(Nc4ncc5ccn(-c6ccc(F)c(NS(=O)(=O)C(C)(C)C)c6)c5n4)cc3CC2C1 (stereo not shown) |
| 149 nM | 62 nM | CN1CCN(c2ccc(Nc3ncc4ccn(-c5ccc(F)c(NS(=O)(=O)C(C)(C)C)c5)c4n3)cc2F)CC1 |
| 5800 nM | 10000 nM | CC1CNCCC1Nc1nc(Nc2ccc3c(c2)N(S(=O)(=O)C(C)(C)C)CC3)c2ccsc2n1 (stereo not shown) |
| 680 nM | 230 nM | Cc1ccc(-n2ccc3cnc(Nc4ccc(N5CCN(C)CC5)cc4)nc32)cc1NS(=O)(=O)C(C)(C)C |
| 162 nM | 51 nM | CC(C)(C)S(=O)(=O)Nc1cc(-c2csc3cnc(Nc4ccc(N5CCNCC5)c(F)c4)nc23)ccc1F |
| 1040 nM | 14.3 nM | O=S(=O)(Nc1cc(-n2ccc3cnc(Nc4ccc(N5CCNCC5)cc4)nc32)ccc1F)C1CC1 |
| 3200 nM | 35 nM | CN1C(=O)CCc2cc(Nc3ncc4ccn(-c5cccc(NS(=O)(=O)C(C)(C)C)c5)c4n3)ccc21 |
| 228 nM | 36 nM | CN1CCN(c2ccc(Nc3ncc4scc(-c5ccc(F)c(NS(=O)(=O)C(C)(C)C)c5)c4n3)cc2F)CC1 |
| 164 nM | 8 nM | Cc1cnc(Nc2ccc(N3CCN(C)CC3)cc2)nc1Nc1cccc(NS(=O)(=O)C(C)(C)C)c1 [drawing 276] |
| 561 nM | 22 nM | CNc1cc(Nc2ncc3ccn(-c4cccc(NS(=O)(=O)C(C)(C)C)c4)c3n2)ccc1N1CCN(C)CC1 |
| 257 nM | 10000 nM | CC(C)(C)S(=O)(=O)Nc1cccc(Nc2nc(NC3CCNCC3)nc3sccc23)c1 [drawing 270] |
| 174 nM | 8 nM | CC(C)(C)S(=O)(=O)Nc1cccc(-n2ccc3cnc(Nc4ccc(N5CCNCC5)c(F)c4)nc32)c1 [drawing 432] |
| 4600 nM | 40 nM | CC(C)(C)S(=O)(=O)Nc1cccc(-n2ccc3cnc(Nc4ccc(N5CCN(S(C)(=O)=O)CC5)cc4)nc32)c1 |
| 10000 nM | 0.6 nM | CN1CCN(c2ccc(Nc3ncc4ccn(-c5ccc6c(c5)CCN6S(=O)(=O)C(C)(C)C)c4n3)cc2)CC1 [drawing 398] |
| 1680 nM | 32 nM | CN1CCN(c2ccc(Nc3nc(Nc4cccc(NS(=O)(=O)C(C)(C)C)c4)c4cc[nH]c4n3)cc2)CC1 |
| 1500 nM | 5 nM | CCC1(S(=O)(=O)Nc2cccc(-n3ccc4cnc(Nc5ccc(N6CCC(N(C)C)CC6)c(F)c5)nc43)c2)CC1 |
| 577 nM | 72 nM | CN1CCN(c2ccc(Nc3ncc4ccn(-c5cccc(NS(=O)(=O)C(C)(C)C)c5)c4n3)cc2C(N)=O)CC1 |
| 1940 nM | 40 nM | CC(C)(C)S(=O)(=O)N1CCc2ccc(-n3ccc4cnc(Nc5ccc(N6CCNCC6)cc5)nc43)cc21 |
| 255 nM | 10 nM | Cc1cnc(Nc2ccc(N3CCN(C)CC3)cc2)nc1Nc1cccc(NS(=O)(=O)C(C)(C)C)c1 [drawing 258] |
| 131 nM | 3 nM | CN(C)C1CCN(c2ccc(Nc3ncc4ccn(-c5cccc(NS(=O)(=O)C(C)(C)C)c5)c4n3)cc2F)CC1 [drawing 371] |
| 372 nM | 177 nM | CN1CCC(NC(=O)c2ccc(Nc3ncc4ccn(-c5ccc(F)c(NS(=O)(=O)C(C)(C)C)c5)c4n3)cc2)CC1 |

| IC50 (BRD4-BD1) | IC50 (JAK2) | Compound |
| --- | --- | --- |
| 8300 nM | 3 nM | CN1CCN(c2ccc(Nc3ncc4ccn(-c5cccc(CNS(=O)(=O)C(C)(C)C)c5)c4n3)cc2)CC1 |
| 1350 nM | 5 nM | O=S(=O)(Nc1cccc(-n2ccc3cnc(Nc4ccc(N5CCNCC5)cc4)nc32)c1)C1CC1 [drawing 307] |
| 930 nM | 12 nM | CN1CCN(c2ccc(Nc3ncc4ccn(-c5cccc(NS(=O)(=O)C6(C)CC6)c5)c4n3)cc2)CC1 |
| 228 nM | 188 nM | CN1CCN(c2ccc(Nc3ncc4ccn(-c5ccc(F)c(NS(=O)(=O)C(C)(C)C)c5)c4n3)cc2)CC1 [drawing 340] |
| 1980 nM | 10000 nM | CC1CNCCC1Nc1nc(Nc2cccc(NS(=O)(=O)C(C)(C)C)c2)c2ccsc2n1 (stereo not shown) |
| 722 nM | 11 nM | Cc1cc(Nc2ncc3ccn(-c4cccc(NS(=O)(=O)C(C)(C)C)c4)c3n2)ccc1N1CCN(C)CC1 |
| 10000 nM | 456 nM | CC(=O)N1CCC(c2ccc(Nc3ncc4ccn(-c5cccc(NS(=O)(=O)C(C)(C)C)c5)c4n3)cc2)CC1 |
| 193 nM | 359 nM | CNCCNC(=O)Cc1ccc(Nc2ncc3ccn(-c4ccc(F)c(NS(=O)(=O)C(C)(C)C)c4)c3n2)cc1 |
| 105 nM | 265 nM | CN(C)C1CCN(Cc2ccc(Nc3ncc4ccn(-c5ccc(F)c(NS(=O)(=O)C(C)(C)C)c5)c4n3)cc2F)CC1 |
| 491 nM | 129 nM | CN(C)C(=O)C1CCN(c2ccc(Nc3ncc4ccn(-c5ccc(F)c(NS(=O)(=O)C(C)(C)C)c5)c4n3)cc2F)CC1 |
| 10000 nM | 0.18 nM | CN1CCN(c2ccc(Nc3ncc4ccn(-c5ccc(CNS(=O)(=O)C(C)(C)C)cc5)c4n3)cc2)CC1 [drawing 378] |
| 3210 nM | 71 nM | O=S(=O)(Nc1cccc(-n2ccc3cnc(Nc4ccc(C5CCNCC5)cc4)nc32)c1)C1CC1 |
| 142 nM | 251 nM | CNCCNC(=O)Cc1ccc(Nc2ncc3ccn(-c4ccc(F)c(NS(=O)(=O)C(C)(C)C)c4)c3n2)cc1F |
| 560 nM | 1 nM | COc1cc(Nc2ncc3scc(-c4cccc(NS(=O)(=O)C(C)(C)C)c4)c3n2)ccc1N1CCC(N(C)C)CC1 |
| 10000 nM | 3 nM | CN1CCN(c2ccc(Nc3ncc4ccn(-c5cccc(NS(=O)(=O)c6ccccc6)c5)c4n3)cc2)CC1 [drawing 287] |
| 145 nM | 51 nM | CN(C)C1CCN(Cc2ccc(Nc3ncc4ccn(-c5cccc(NS(=O)(=O)C(C)(C)C)c5)c4n3)cc2F)CC1 |
| 800 nM | 70 nM | CN1CCCc2cc(Nc3ncc4ccn(-c5cccc(NS(=O)(=O)C(C)(C)C)c5)c4n3)ccc21 |
| 248 nM | 20 nM | CN(C)C1CCN(c2ccc(Nc3ncc4ccn(-c5ccc(F)c(NS(=O)(=O)C6(C)CC6)c5)c4n3)cc2F)CC1 |
| 166 nM | 13 nM | Cc1cnc(Nc2ccc(N3CCN(C)CC3)cc2)nc1Nc1cccc(NS(=O)(=O)C(C)(C)C)c1 [drawing 321] |
| 1300 nM | 38 nM | CN1CCN(c2ccc(Nc3ncc4ccn(-c5ccc6c(c5)N(S(=O)(=O)C(C)(C)C)CC6)c4n3)cc2F)CC1 |
| 431 nM | 2 nM | CNC1CCN(c2ccc(Nc3ncc4scc(-c5cccc(NS(=O)(=O)C(C)(C)C)c5)c4n3)cc2F)CC1 |
| 590 nM | 10000 nM | CC(C)(C)S(=O)(=O)Nc1cccc(Nc2nc(NC3CCNCC3)nc3sccc23)c1 [drawing 267] |
| 141 nM | 6 nM | Cc1cnc(Nc2ccc(N3CCN(C)CC3)cc2)nc1Nc1cccc(NS(=O)(=O)C(C)(C)C)c1 [drawing 391] |

| Compound | IC50 (BRD4-BD1) | IC50 (JAK2) |
| --- | --- | --- |
| CN1CCN(C(=O)Cc2ccc(Nc3ncc4ccn(-c5cccc(NS(=O)(=O)C(C)(C)C)c5)c4n3)cc2)CC1 | 916 nM | 176 nM |
